{"source": "paper PMC11571054", "about": "“Unveiling the GT114 family: Structural characterization of A075L, a glycosyltransferase from Paramecium bursaria chlorella virus‐1 (PBCV‐1)” (Protein Science : A Publication of the Protein Society, 2024)", "key": {"A075L [1]": {"target": "T1, A075L (Paramecium bursaria Chlorella virus 1, UniProt Q89410)", "T1 construct": "recombinant in E. coli BL21 Gold (SeMet in B834); GST tag cut with PreScission protease; GST kept only for mutant D73A", "T1 sequence (Q89410 1-280)": "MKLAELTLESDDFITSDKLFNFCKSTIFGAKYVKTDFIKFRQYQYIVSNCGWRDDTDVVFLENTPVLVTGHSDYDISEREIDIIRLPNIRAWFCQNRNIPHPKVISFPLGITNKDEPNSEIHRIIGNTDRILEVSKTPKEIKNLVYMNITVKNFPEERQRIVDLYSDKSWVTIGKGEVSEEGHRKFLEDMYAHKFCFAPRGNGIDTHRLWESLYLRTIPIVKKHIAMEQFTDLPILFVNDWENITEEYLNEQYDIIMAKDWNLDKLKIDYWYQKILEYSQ", "experiment": "STD-NMR", "type": "binding", "conditions": "1:40 enzyme-acceptor ratio; 25 °C; binds but is not glycosylated"}, "A075L [2]": {"target": "T1, A075L", "experiment": "ITC", "type": "binding"}}, "note": "pKd: −log10 of the molar value.", "data": [{"smiles": "CCCCCCCCO[C@@H]1O[C@@H](C)[C@@H](O)[C@@H](O)[C@@H]1O[C@H]1O[C@H](CO)[C@H](O)[C@H](O)[C@H]1O", "note": "[compound 5, α‐D‐Gal‐(1 → 2)‐α‐L‐Fuc‐Octyl]", "values": [{"measurement": "STD-NMR", "setting": "A075L [1]", "result": "despite their lower reactivity, both disaccharides can be accommodated in the binding site"}]}, {"smiles": "O=c1ccn([C@@H]2O[C@H](COP(=O)(O)OP(=O)(O)O[C@H]3OC[C@@H](O)[C@H](O)[C@H]3O)[C@@H](O)[C@H]2O)c(=O)[nH]1", "note": "[compound 1, UDP‐α‐D‐Xyl]", "values": [{"measurement": "pKd", "setting": "A075L [2]", "result": 4.51}]}]}
